25 compounds from patent US20250179045A1, “LPAR1 ANTAGONISTS AND USES THEREOF” (Contineum Therapeutics, Inc., priority 2021, published 2025) can be followed below.

Where only a bound is given, the exact number is not on record here.

The assay has as its target human LPA1 (Homo sapiens, UniProt Q92633). Kind of assay: In vitro functional assay of lysophosphatidic acid receptor 1 activity (calcium flux). In kind it is cell-based. The following applies: B103 cells stably expressing human LPA1; Fluo-4 NW calcium flux after lysophosphatidic acid (18:1) at EC80; compounds 100 pM to 10 μM; read-out: LPA1 IC50. As for the experimental part: In vitro functional assay of lysophosphatidic acid receptor 1 activity
Primary compound plates were prepared in 100% DMSO (Sigma-Aldrich), secondary compound plates were prepared at 10× concentration in DiVEM (Invitrogen), and tertiary compound plates were prepared at 3x concentration in assay buffer containing HBSS (no Ca^+2/Mg^+2, Invitrogen) and 0.1% BSA (Sigma-Aldrich). Fluo-4 NW calcium assay dye (Invitrogen) was prepared as per manufacturer's recommendations in assay buffer. B103 cells stably expressing human LPA1(J. Chun lab, UCSD) were grown to confluency in DMEM media (Invitrogen) containing 10% FBS (ATCC), […] (Sigma-Aldrich) and […] Geneticin (Sigma-Aldrich), and detached with Accutase (Sigma-Aldrich) prior to assay. The freshly detached cells were resuspended in growth media and plated in black, clear-bottom 96-well plates (Costar) containing compound (i.e., secondary compound plate) at a density of 5×10^4 cells/well. Once plated, cells were left at room temperature for 30 minutes and then transferred to a 37° C., […] incubator for 24 hours. After 24 hours, the growth media was then removed and freshly prepared Fluo-4 NW calcium assay dye was added to cells. Compounds (i.e. tertiary compound plates) were then added back to the dye/cells, returned to the incubator for 30 minutes, and then kept at room temperature for an additional 30 minutes. Finally, lysophosphatidic acid (18:1) at the EC80 concentration was added and calcium flux measured using FlexStation 3 (Molecular Devices). Sigmoidal dose-response curves were generated by measuring […] over 45 sec and calculating the area under the curve. Dose response curves and IC50 values were generated using Prism (GraphPad). Compounds were tested at a final concentration range of 100 pM to 10 μM in 0.10% DMSO.
For orientation: Calcium flux is commonly read through the fluorescence of an indicator in the cells.

Sequence of human LPA1 (Q92633 whole entry): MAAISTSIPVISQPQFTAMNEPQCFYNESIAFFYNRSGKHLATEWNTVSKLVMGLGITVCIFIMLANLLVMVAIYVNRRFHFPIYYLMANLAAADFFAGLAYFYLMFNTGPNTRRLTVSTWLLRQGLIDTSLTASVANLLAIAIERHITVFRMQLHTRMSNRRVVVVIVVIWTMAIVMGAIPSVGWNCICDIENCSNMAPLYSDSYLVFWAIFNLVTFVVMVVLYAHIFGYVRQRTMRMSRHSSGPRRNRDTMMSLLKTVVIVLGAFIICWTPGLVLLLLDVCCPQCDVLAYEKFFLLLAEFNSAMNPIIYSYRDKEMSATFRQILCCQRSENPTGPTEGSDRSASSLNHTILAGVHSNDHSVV

As to `CNC1CC(C(=O)Nc2ccc(C)nc2OC(F)F)(c2ccccc2C(C)C)C1` (mixture of isomers) [Example 38, N-(2-(difluoromethoxy)-6-methylpyridin-3-yl)-1-(2-isopropylphenyl)-3-(methylamino)cyclobutane-1-carboxamide], the IC50 lay in the range of 100 to 1000 nM.
The figure for `CC(=O)N(C)C1CC(C(=O)Nc2ccc(C)nc2OC(F)F)(c2ccccc2C(C)C)C1` (mixture of isomers) [Example 43, N-(2-(difluoromethoxy)-6-methylpyridin-3-yl)-1-(2-isopropylphenyl)-3-(N-methylacetamido)cyclobutane-1-carboxamide] is 10 to 100 nM; for `Cc1ccc(NC(=O)C2(c3ccccc3C(C)C)CC(CC(=O)O)C2)c(OC(F)F)n1` (mixture of isomers) [Example 45, 2-(3-((2-(difluoromethoxy)-6-methylpyridin-3-yl)carbamoyl)-3-(2-isopropylphenyl)cyclobutyl)acetic acid] it is less than 10 nM; for `Cc1ccc(NC(=O)C2(c3ccccc3C(C)C)CC(CCO)C2)c(OC(F)F)n1` (mixture of isomers) [Example 49, N-(2-(difluoromethoxy)-6-methylpyridin-3-yl)-3-(2-hydroxyethyl)-1-(2-isopropylphenyl)cyclobutane-1-carboxamide] it is 10 to 100 nM.
The figure for `Cc1ccc(NC(=O)C2(c3ccccc3C(C)C)CC(O)(C(F)(F)C(=O)O)C2)c(OC(F)F)n1` (mixture of isomers) [Example 53, 2-(3-((2-(difluoromethoxy)-6-methylpyridin-3-yl)carbamoyl)-1-hydroxy-3-(2-isopropylphenyl)cyclobutyl)-2,2-difluoroacetic acid] is less than 10 nM.
The figure for `Cc1ccc(NC(=O)C2(c3ncccc3C(C)C)CC(O)C2)c(OC(F)F)n1` (mixture of isomers) [Example 57, N-(2-(difluoromethoxy)-6-methylpyridin-3-yl)-3-hydroxy-1-(3-isopropylpyridin-2-yl)cyclobutane-1-carboxamide] is 10 to 100 nM.
Regarding `Cc1ccc(NC(=O)C2(c3ccccc3C(C)C)CC(CC#N)C2)c(OC(F)F)n1` (mixture of isomers) [Example 63, 3-(cyanomethyl)-N-(2-(difluoromethoxy)-6-methylpyridin-3-yl)-1-(2-isopropylphenyl)cyclobutane-1-carboxamide], the IC50 lay in the range of 100 to 1000 nM.
On to `Cc1ccc(NC(=O)C2(c3ccccc3C(C)C)CC(N3CCC3=O)C2)c(OC(F)F)n1` (mixture of isomers) [Example 68, N-(2-(difluoromethoxy)-6-methylpyridin-3-yl)-1-(2-isopropylphenyl)-3-(2-oxoazetidin-1-yl)cyclobutane-1-carboxamide], for which the IC50 lay within 10 to 100 nM.
On to `Cc1ccc(NC(=O)C2(c3ccccc3C(C)C)CC(S(N)(=O)=O)C2)c(OC(F)F)n1` (mixture of isomers) [Example 69, N-(2-(difluoromethoxy)-6-methylpyridin-3-yl)-1-(2-isopropylphenyl)-3-sulfamoylcyclobutane-1-carboxamide], for which the 50% inhibitory concentration (IC50) is 10 to 100 nM.
For the compound `COc1ccc(NC(=O)C2(c3ccccc3C(C)C)CCC(O)CC2)c(OC(F)F)n1` (mixture of isomers) [Example 81, N-(2-(difluoromethoxy)-6-methoxypyridin-3-yl)-4-hydroxy-1-(2-isopropylphenyl)cyclohexane-1-carboxamide], the IC50 was in the range of 10 to 100 nM.
The figure for `COc1ccc(NC(=O)C2(c3ccccc3C(C)C)CCC(NC(C)=O)CC2)c(OC(F)F)n1` (mixture of isomers) [Example 85, 4-acetamido-N-(2-(difluoromethoxy)-6-methoxypyridin-3-yl)-1-(2-isopropylphenyl)cyclohexane-1-carboxamide] is 100 to 1000 nM; for `COc1ccc(NC(=O)C2(c3ccccc3C(C)C)CCC3(CC2)NC(=O)NC3=O)c(OC(F)F)n1` (mixture of isomers) [Example 86, N-(2-(difluoromethoxy)-6-methoxypyridin-3-yl)-8-(2-isopropylphenyl)-2,4-dioxo-1,3-diazaspiro[4.5]decane-8-carboxamide] it is 100 to 1000 nM; for `COc1ccc(NC(=O)C2(c3ccccc3C(C)C)CCC(C#N)CC2)c(OC(F)F)n1` (mixture of isomers) [Example 95, 4-cyano-N-(2-(difluoromethoxy)-6-methoxypyridin-3-yl)-1-(2-isopropylphenyl)cyclohexane-1-carboxamide] it is 10 to 100 nM.
The figure for `COc1ccc(NC(=O)C2(c3ccccc3C(C)C)CCC(C(N)=O)CC2)c(OC(F)F)n1` (mixture of isomers) [Example 96, N^1-(2-(difluoromethoxy)-6-methoxypyridin-3-yl)-1-(2-isopropylphenyl)cyclohexane-1,4-dicarboxamide] is 100 to 1000 nM.
The figure for `COc1ccc(NC(=O)C2(c3ccccc3C(C)C)CCC(S(=O)(=O)N(C)C)CC2)c(OC(F)F)n1` (mixture of isomers) [Example 98, N-(2-(difluoromethoxy)-6-methoxypyridin-3-yl)-4-(N,N-dimethylsulfamoyl)-1-(2-isopropylphenyl)cyclohexane-1-carboxamide] is 100 to 1000 nM.
As for `Cc1ccc(NC(=O)C2(c3ccccc3C(C)C)CC(Cc3nnn[nH]3)C2)c(OC(F)F)n1` (mixture of isomers) [Example 112, 3-((1H-tetrazol-5-yl)methyl)-N-(2-(difluoromethoxy)-6-methylpyridin-3-yl)-1-(2-isopropylphenyl)cyclobutane-1-carboxamide], the IC50 was in the range of 10 to 100 nM.
Consider `COc1ccc(NC(=O)C2(c3ccccc3C(C)C)CC(=O)N(C)C2)c(OC(F)F)n1` (single isomer, unassigned) [Example 1, N-(2-(difluoromethoxy)-6-methoxypyridin-3-yl)-3-(2-isopropylphenyl)-1-methyl-5-oxopyrrolidine-3-carboxamide], for which the IC50 lay within 10 to 100 nM.
Turning to `CC(C)c1ccccc1C1(C(=O)Nc2ncc(Cl)cc2OC(F)F)CC(=O)N(C)C1` (single isomer, unassigned) [Example 7, N-(5-chloro-3-(difluoromethoxy)pyridin-2-yl)-3-(2-isopropylphenyl)-1-methyl-5-oxopyrrolidine-3-carboxamide], the IC50 was in the range of 100 to 1000 nM.
The figure for `COc1ccc(NC(=O)C2(c3ccccc3C(C)C)CNC(=O)C2)c(OC(F)F)n1` (single isomer, unassigned) [Example 8, N-(2-(difluoromethoxy)-6-methoxypyridin-3-yl)-3-(2-isopropylphenyl)-5-oxopyrrolidine-3-carboxamide] is less than 10 nM; for `Cc1ccc(NC(=O)C2(c3ccccc3C(C)C)CC(NC3CC3)C2)c(OC(F)F)n1` (single isomer, unassigned) [Example 40-isomer A, 3-(cyclopropylamino)-N-(2-(difluoromethoxy)-6-methylpyridin-3-yl)-1-(2-isopropylphenyl)cyclobutane-1-carboxamide] it is 100 to 1000 nM; for `Cc1ccc(NC(=O)C2(c3ccccc3C(C)C)CC(NC3CC3)C2)c(OC(F)F)n1` (single isomer, unassigned) [Example 40-isomer B, 3-(cyclopropylamino)-N-(2-(difluoromethoxy)-6-methylpyridin-3-yl)-1-(2-isopropylphenyl)cyclobutane-1-carboxamide] it is 100 to 1000 nM.
Take `Cc1ccc(NC(=O)C2(c3ccccc3C(C)C)CC(C)(O)C2)c(OC(F)F)n1` (single isomer, unassigned) [Example 51-isomer A, N-(2-(difluoromethoxy)-6-methylpyridin-3-yl)-3-hydroxy-1-(2-isopropylphenyl)-3-methylcyclobutane-1-carboxamide]: the half-maximal inhibitory concentration (IC50) lay within 100 to 1000 nM.
The figure for `Cc1ccc(NC(=O)C2(c3ccccc3C(C)C)CC(C)(O)C2)c(OC(F)F)n1` (single isomer, unassigned) [Example 51-isomer B, N-(2-(difluoromethoxy)-6-methylpyridin-3-yl)-3-hydroxy-1-(2-isopropylphenyl)-3-methylcyclobutane-1-carboxamide] is 100 to 1000 nM; for `COc1ccc(NC(=O)C2(c3ccccc3C(C)C)CC(O)(C(F)(F)C(=O)O)C2)c(OC(F)F)n1` (single isomer, unassigned) [Example 54-isomer A, 2-(3-((2-(difluoromethoxy)-6-methoxypyridin-3-yl)carbamoyl)-1-hydroxy-3-(2-isopropylphenyl)cyclobutyl)-2,2-difluoroacetic acid] it is less than 10 nM.
In the case of `COc1ccc(NC(=O)C2(c3ccccc3C(C)C)CC(O)(C(F)(F)C(=O)O)C2)c(OC(F)F)n1` (single isomer, unassigned) [Example 54-isomer B, 2-(3-((2-(difluoromethoxy)-6-methoxypyridin-3-yl)carbamoyl)-1-hydroxy-3-(2-isopropylphenyl)cyclobutyl)-2,2-difluoroacetic acid], the IC50 is 10 to 100 nM.

One may read the IC50 as the concentration that gives 50% inhibition.
